# Test results taken from publication PMC10011554, “BET inhibitor trotabresib in heavily pretreated patients with solid tumors and diffuse large B-cell lymphomas” (Nature Communications, 2023).
# Values joined by “and” are separate entries in the source; they are usually repeats but may differ in a detail not shown here. Equal values may be shown once. Read-outs that look alike come from different tables or passages of the source.
# Columns and labels:
# [1] = tested on: advanced or unresectable solid tumors; assay: Tumor response (RECIST v1.1/RANO), PFS and OS in phase I study, parts A and C; format: in vivo, human
# Protocol: Secondary objectives were the preliminary efficacy of trotabresib in terms of clinical benefit rate (CR + PR + SD of ≥4 months’ duration), ORR (CR + PR), duration of response or SD, PFS, OS, and the PK of trotabresib. In addition, part C assessed the effects of food on the PK and the safety of trotabresib as a secondary objective. The pharmacodynamics of trotabresib were assessed as an exploratory objective.
# Response was assessed using Response Evaluation Criteria in Solid Tumors (RECIST) v1.1[54] in patients with solid tumors, International Working Group criteria in patients with DLBCL[55], and Response Assessment in Neuro-Oncology (RANO) criteria[56] in patients with CNS tumors (astrocytoma and glioblastoma). For patients with BCC, the response was assessed using a combination of radiological assessment of target lesions per RECIST v1.1, digital clinical photography assessed per World Health Organization (WHO) criteria, and punch biopsies to confirm CR. PK parameters assessed included Cmax, tmax, AUC, t½, apparent clearance (CL/F), and apparent volume of distribution (Vz/F).
# Bayesian logistic regression model based on dose-limiting toxicity was used to provide initial guidance for dose recommendations in the dose-escalation phase. The final decision was reached by considering the totality of safety, PK, and PD data. For binary efficacy endpoints, two-sided 95% Clopper–Pearson exact confidence intervals were provided. For time-to-event endpoints (PFS and OS), the median and 95% CI were estimated using the Kaplan–Meier method.
# RC-K8 (ABC DLBCL) = tested on: RC-K8 (ABC DLBCL); parameters: method as in Report CC-90010-Pharm-1018; settings: RC-K8, Experiment 1, ref Report CC-90010-Pharm-1018; read-out: absolute IC50, proliferation; cited from earlier work
# [2] = tested on: MYC expression in COH70 TNBC PDX tumor; parameters: method as in Investigator's Brochure; settings: ref Investigator's Brochure, cited from earlier work
# [3] = parameters: method as in Unpublished data from Celgene Corporation; settings: COH70 study, ref Unpublished data from Celgene Corporation; cited from earlier work
# GBM15 GBM PDX = tested on: GBM15 GBM PDX; parameters: method as in Unpublished data from Celgene Corporation; settings: Day 29, ref Unpublished data from Celgene Corporation, cited from earlier work
# [4] = part A (N = 69), 02 Dec 2019 cutoff
structure (smiles),measurement,setting,value
Cn1cc(-c2cc(S(C)(=O)=O)ccc2OCC2CC2)c2ccccc2c1=O [trotabresib],patients on treatment ≥24 cycles with sustained SD,[1]; part A,five
same,"clinical benefit rate (CBR; CR, PR, or SD ≥4 months)",[1]; part A (N = 69),17.4%
same,objective response rate (ORR; CR or PR),[1]; part A (N = 69),2.9%
same,subjects with SD,[1]; [4],33.3%
same,subjects with SD ≥ 4 months,[1]; [4],14.5%
same,subjects with confirmed CR,[1]; [4],1.4%
same,subjects with confirmed PR,[1]; [4],1.4%
same,Median OS (95% CI),[1]; part A (n = 69),189 (161–258) days
same,Median PFS (95% CI),[1]; part A (n = 69),57 (52–81) days
same,OS range,[1]; part A (n = 69),15 to 853 days
same,PFS range,[1]; part A (n = 69),11 to 945 days
same,subjects with stable disease,"[1]; part A, 10 December 2018 cutoff",27.5%
same,duration of confirmed partial response,"[1]; part A, one patient with endometrial cancer",8 cycles
same,duration of complete response,"[1]; part A, one patient with grade 2 diffuse astrocytoma",19 cycles
same,total treatment duration,"[1]; part A, one patient with salivary gland cancer, ongoing at cycle 53",4.0 years
same,time on treatment,"[1]; part A, one patient with thymic cancer (38 cycles)",3.1 years
same,further patients on treatment ≥1 year with sustained SD,[1]; part C,seven
same,best response CR,[1]; part C (N = 41),0%
same,best response PD,[1]; part C (N = 41),19.5%
same,best response PR,[1]; part C (N = 41),0%
same,CBR,"[1]; part C (N = 41), treated population",31.7%
same,ORR,"[1]; part C (N = 41), treated population, confirmed responses",0.0%
same,Median OS (95% CI),[1]; part C (n = 41),508 days and 508 (239–NE) days
same,Median PFS (95% CI),[1]; part C (n = 41),114 (84–239) days
same,OS range,[1]; part C (n = 41),33 to 508 days
same,PFS range,[1]; part C (n = 41),33 to 438 days
same,reduction in tumor size (minor response),"[1]; part C, one patient with refractory high-grade astrocytoma",38%
same,treatment duration,"[1]; part C, one patient with treatment-refractory high-grade astrocytoma, ongoing",2.5 years
same,IC50,RC-K8 (ABC DLBCL),130 nM
same,maximal suppression of MYC expression,"[2]; COH70, 2 mg/kg, at 2 hours",51.3%
same,maximal suppression of MYC expression,"[2]; COH70, 10 mg/kg, at 4 hours",63.4%
same,daily dose up to which well tolerated,[3],25 mg/kg
same,mean percent TGI,"GBM15 GBM PDX; GBM15, 15 mg/kg/dose (5/2)",65%
same,mean percent TGI,"GBM15 GBM PDX; GBM15, 25 mg/kg/dose (3/4)",65%
same,mean percent TGI,"GBM15 GBM PDX; GBM15, 37.5 mg/kg/dose (2/5)",70%
